The text below walks through data of the supplement of paper PMC10307832.

Test in all cases: relative viability (nuclei count vs DMSO), 5 days (fraction); higher = more cells survive
Compound in the experiment “R406 + Luminespib”: COc1cc(Nc2ncc(F)c(Nc3ccc4c(n3)NC(=O)C(C)(C)O4)n2)cc(OC)c1OC [R406] + CCNC(=O)c1noc(-c2cc(C(C)C)c(O)cc2O)c1-c1ccc(CN2CCOCC2)cc1 [Luminespib] (partner 0.01 µM)
In a few lines:
(§1)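 Nuclei were stained with Hoechst during a one-step fixation (final 0.05% Triton X-100, 1% formaldehyde, 1 ug/ml Hoechst) carried out 5 days after dosing, then counted on 4× images. The cells, lung cancer lines in 1536-well plates, had been dosed by pin tool the day after seeding with one drug alone or a fixed anchor-drug dose plus five library-drug doses (not always all listed) in √10 steps. Relative viability is the nuclei count in treated wells divided by that in vehicle wells, and each value is the median of duplicate plates.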

Compound in the experiment “Daporinad + Trametinib”: O=C(/C=C/c1cccnc1)NCCCCC1CCN(C(=O)c2ccccc2)CC1 [Daporinad] + CC(=O)Nc1cccc(-n2c(=O)n(C3CC3)c(=O)c3c(Nc4ccc(I)cc4F)n(C)c(=O)c(C)c32)c1 [Trametinib] (partner 0.02 µM)
An outline of the steps:
as §1

Compound in the experiment “Daporinad + Luminespib”: O=C(/C=C/c1cccnc1)NCCCCC1CCN(C(=O)c2ccccc2)CC1 [Daporinad] + CCNC(=O)c1noc(-c2cc(C(C)C)c(O)cc2O)c1-c1ccc(CN2CCOCC2)cc1 [Luminespib] (partner 0.01 µM)
In a few lines:
as §1

Compound in the experiment “Daporinad + Lapatinib”: O=C(/C=C/c1cccnc1)NCCCCC1CCN(C(=O)c2ccccc2)CC1 [Daporinad] + CS(=O)(=O)CCNCc1ccc(-c2ccc3ncnc(Nc4ccc(OCc5cccc(F)c5)c(Cl)c4)c3c2)o1 [Lapatinib] (partner 2 µM)
In a few lines:
as §1

UMC-11: the relative viability turned out to be 1.09 with R406 + Luminespib (first compound 0.08 µM); 1.07 with R406 + Luminespib (first compound 0.253 µM); 1.12 with R406 + Luminespib (first compound 0.8 µM); 0.835 with R406 + Luminespib (first compound 2.53 µM); 0.418 in the experiment with R406 + Luminespib (first compound 8 µM); 0.645 with Daporinad + Trametinib (first compound 0.0005 µM). Also, the relative viability in the experiment with Daporinad + Trametinib (first compound 0.001581 µM) came to 0.926; in the experiment with Daporinad + Trametinib (first compound 0.005 µM), 0.775; in the experiment with Daporinad + Trametinib (first compound 0.01581 µM) it was 1.14; in the experiment with Daporinad + Luminespib (first compound 0.0005 µM), 1.09; in the experiment with Daporinad + Luminespib (first compound 0.001581 µM), 1.04; with Daporinad + Luminespib (first compound 0.005 µM) it was 1.26. Further, the relative viability with Daporinad + Luminespib (first compound 0.01581 µM) was determined as 1.16; with Daporinad + Lapatinib (first compound 0.0005 µM), 0.995; with Daporinad + Lapatinib (first compound 0.001581 µM) it was 1.06; in the experiment with Daporinad + Lapatinib (first compound 0.005 µM), 1.08; with Daporinad + Lapatinib (first compound 0.01581 µM), 1.24.
